Laboratory results as given in US9289443B2, “Pharmaceutical composition and method for preventing or treating hepatitis C” (INDUSTRIAL TECHNOLOGY RESEARCH INSTITUTE, priority 2010, dated 2016).
Where two headings read alike, the source gives them in different places.

Legend:
[1] = test system: Huh-luc/neo-ET cells; assay: Cell cytotoxic test (MTT) on Huh-luc/neo-ET cells; format: cell-based; settings: concentration for 15% cell kill, two-day culture
Description: (§1) Cell Cytotoxic Test on Huh-luc/noe-ET Cells
(§2) Huh-luc/neo-ET cells with a concentration of 2.5×10^4 cells/100 μl/well were seeded into a 96 well culture plate (Corning Incorporation COSTAR, 3599) and placed into a cell incubator for culturing.
(§3) The next day, the oleanolic acid derivatives as listed in the following Tables 1 and 2 were diluted with a DMEM culture medium to the concentrations of 28.73 μg/ml, 9.57 μg/ml, 3.19 μg/ml, 1.06 μg/ml, 0.35 μg/ml, 0.11 μg/ml, 0.039 μg/ml and 0.013 μg/ml, respectively, or diluted to the concentrations of 114.92 μg/ml, 38.33 μg/ml, 12.77 μg/ml, 4.25 μg/ml, 1.42 μg/ml, 0.46 μg/ml, 0.16 μg/ml and 0.057 μg/ml, respectively. The initial medium in the 96 well culture plate was sucked out by a vacuum pump (DOAT-704AA) without removing the cells. Then, the culture medium containing the oleanolic acid derivatives were added into the 96 well culture plate containing 100 μl/well of the cells as the experiment groups, while the untreated culture mediums were added to the cells as a control.
(§4) After a two-day culture, the medium was removed and each well containing cells was washed by 100 μl of 1×PBS (1 mM KH2PO4, 10 mM Na2HPO4, 137 mM NaCl, 2.7 mM KCl) twice. Precipitates were recorded and PBS was removed. 50 μl of the medium containing 0.5 mg/ml of MTT (Sigma, M2128) was added into each well of the 96 well culture plate. The 96 well culture plate was placed in a CO2 culture incubator for 1 hour. Subsequently, 150 μl of DMSO (Riedel-de Haül, 60153) was added to each well of the 96 well culture plate and vortexed (KS shaker Type 670) to thoroughly mix the resulting purple precipitates. The 96 well culture plate was then placed in a continuous wave length microwell plate analysis system (Molecular Devices, SPECTRAMAX 190) to measure the absorbance of cells at a wavelength of 560 nm.
(§5) The average absorbance of the control was set as 100% of the cell survival rates (%) to calculate the cell survival rates (%) of the experiment groups with different concentrations of the oleanolic acid derivatives.
(§6) The cell survival rate was calculated by the following formula: Absorbance of the experiment group/Absorbance of the control×100%
(§7) The data of the cell survival rates for all experiment groups were plotted on an x-y graph to see the distribution. A trend line was obtained. […]

[2] = Cell cytotoxic test (MTT) on Huh-luc/neo-ET cells; format: cell-based; settings: human, concentration for 50% cell kill, two-day culture
Description: as §1, §2, §3, §4, §5, §6, §7

[3] = test system: HCV replicon system (Huh-luc/neo-ET cell carrying I389luc-ubi-NS3-3'/ET); assay: Inhibition of the HCV replication by determining the firefly luciferase activity (HCV replicon system); format: cell-based, Hepatitis C virus; settings: for IC50 / inhibition at 10 µM / inhibition at 1 µM: Hepatitis C virus; for inhibition at 10 µM / inhibition at 1 µM: 48 h, read-out: Inhibition rate (%); for EW (CC50/IC50): ratio of CC50/IC50; for inhibition at 1 µM: compound concentration 1 μM
Source text: HCV replicon system was used to test the effects of compounds on the treatment and prevention of hepatitis C. The HCV replicon system has been acknowledged as a screening tool for new drugs (Lohmann, V. et al., 1999, Replication of subgenomic hepatitis C virus RNAs in hepatoma cell line, Science. Vol. 285, 110-113; Bartenschlager, R. 2002, Hepatitis C virus replicons: potential role for drug development, Nature Reviews/Drug Discovery. Vol. 1, 911-916; Vorlijk, J. M. et al., 2003, A replicon-based bioassay for the measurement of interferons in patients with chronic hepatitis C, Journal of Virological Methods. 110:201-209). The HCV replicon system includes a Huh-luc/neo-ET cell carrying I389luc-ubi-NS3-3′/ET gene construct which monitors the replicative capability of the HCV. In the HCV replicon system, a firefly luciferase-ubiquitin-neomycin fusion protein is expressed by the translation of the internal ribosomal entry site (IRES) of the HCV, and the hepatitis C viral nonstructural proteins (NS3-5B), which includes protease, helicase and polymerase, are expressed by the translation of the IRES of the encephalomyocarditis virus (EMCV).
The IRES of the hepatitis C virus or the hepatitis C viral nonstructural proteins consist of a replication complex. When the replication complex is affected by the candidate compound, the activity of the HCV replicon system is inhibited and the activity of the luciferase is reduced. Accordingly, the inhibition of the HCV can be estimated by determining the activity of the intensity of the luciferase expressed by the Huh-luc/noe-ET cell.
Inhibition of the HCV Replication by Determining the Firefly Luciferase Activity
as §2
The oleanolic acid derivatives as listed in Table 2 were co-cultured with Huh-luc/neo-ET cells for 2 days. The mediums were washed twice by 100 μl of 1×PBS (1 mM KH2PO4, 10 mM Na2HPO4, 137 mM NaCl, 2.7 mM KCl) and PBS was removed. 35 μl of 1× passive lysis buffer (Promega, E1941) was added to the cells and vortexed for 10 minutes to thoroughly lysis the cells.
30 μl/well of the cell suspension was then added to a 96 well white plate (NUNC, 236108) for the measurement of the luciferase activity. Subsequently, 40 μl/well of luminescence analysis buffer and 20 μl/well of luminescence substrate (1 mM D-Luciferin) were added into the 96 well white plates. The luciferase activity (Rlu/s) was measured by a microplate luminescence meter (Berthold, MPL4) immediately.
The luciferase activity of the control was set as a standard to calculate the inhibition rates (%) of HCV of the experiment groups. The inhibition rates was calculated by the following formula: […]
After the test compounds were serial diluted and the inhibition rates of the HCV replication were determined at different concentrations, the concentration at 50% inhibition of the HCV replication (IC50) was calculated by grafit5 software (Erithacus Software).
For each experiment, 0.5 ng/ml and 0.1 ng/ml of the PEG IFN alpha-2a were used as positive controls for the IC50 test. Meanwhile, 1 μg/ml of cyclosporine A (CsA) was also used as a positive control for the IC50 test.

[4] = Huh-luc/neo-ET, compound concentration 10 μM, 2 days co-culture, luciferase activity
[5] = concentration for 50% inhibition of the HCV replication, Huh-luc/neo-ET replicon cells, read-out: IC50
[6] = Huh-luc/neo-ET, 2 days co-culture, luciferase activity

In the case of `C/C=C(/C)C(=O)OC1CC(C)(C)CC2C3=CCC4C5(C)CCC(OC6OC(C)C(OC7OC(C(=O)O)C(O)C(OC8OC(CO)C(O)C(O)C8OC8OC(CO)C(O)C(O)C8O)C7O)C(O)C6O)C(C)(C)C5CCC4(C)C3(C)C(OC(=O)/C=C/C=C/C=C/CCC)C(OC(C)=O)C12CO` (stereo not shown) [A15], the CC15 [1] is reported as greater than 100 µM, the CC50 at 2 days [2] is reported as greater than 100 µM and the IC50 ([3]; Huh-luc/neo-ET) is reported as 3.94 ± 0.13 µM. The inhibition at 10 µM ([3]; Huh-luc/neo-ET) was 92 ± 1.6% and the “EW (CC50/IC50)” value [3] was 25.38.

`C=CC(C)(O)CC/C=C(\C)C(=O)OCC1OC(OC(=O)C23CCC4(C)C(=CCC5C6(C)CCC(OC7OC(COC8OC(CO)C(O)C(O)C8O)C(OC8OCC(O)C(O)C8OC8OCC(O)C(O)C8O)C(O)C7NC(C)=O)C(C)(C)C6CCC54C)C2CC(C)(C)C(O)C3O)C(OC2OCC(OC3OCC(O)(CO)C3O)C(O)C2O)C(O)C1OC1OC(CO)C(O)C(O)C1O` (stereo not shown) [A16] gave a CC15 [1] of 12.09 µM, a CC50 at 2 days [2] of 45.3 µM and an inhibition at 10 µM [3, 4] of 95.3 ± 0.3%. The IC50 [3, 5] was 0.42 ± 0.21 µM and the “EW (CC50/IC50)” value [3] was 107.9.

Compound `C=CC(C)(O)CC/C=C(\C)C(=O)OCC1OC(OC(=O)C23CCC4(C)C(=CCC5C6(C)CCC(OC7OC(COC8OC(CO)C(O)C(O)C8O)C(OC8OCC(O)C(O)C8OC8OCC(O)C(O)C8O)C(O)C7NC(C)=O)C(C)(C)C6CCC54C)C2CC(C)(C)C(O)C3O)C(OC2OCC(OC3OCC(O)(CO)C3O)C(O)C2O)C(O)C1OC1OC(CO)C(OC(C)=O)C(O)C1O` (stereo not shown) [A17] has a CC15 [1] of 1.49 µM, a CC50 at 2 days [2] of 18.1 µM and an inhibition at 1 µM [3, 6] of 94.9 ± 1.2%. The IC50 [3, 5] was 0.057 ± 0.003 µM and the “EW (CC50/IC50)” value [3] was 317.89.

Compound `C/C=C(\C)C(=O)OC1C(OC(C)=O)C2(C(=O)O)C(CC1(C)C)C1=CCC3C4(C)CCC(OC5OC(CO)C(O)C(OC6OC(CO)C(O)C(OC7OC(C)C(O)C(O)C7O)C6O)C5O)C(C)(C)C4CCC3(C)C1(C)C(OC(C)=O)C2OC(C)=O` (stereo not shown) [A18] has a CC15 [1] of 7.18 µM, a CC50 at 2 days [2] of 94.8 µM and an inhibition at 10 µM [3, 4] of 45 ± 2.9%.

Compound `C=CC(C)(O)CC/C=C(\C)C(=O)OC1C(O)C(CO)OC(OC(=O)C23CCC(C)(C)CC2C2=CCC4C5(C)CCC(OC6OC(COC7OCC(OC(C)=O)C(O)C7OC7OC(COC(C)=O)C(O)C(O)C7OC(C)=O)C(O)C(O)C6OC6OCC(O)C(O)C6O)C(C)(C)C5CCC4(C)C2(C)C(O)C3O)C1OC1OCC(OC2OCC(O)C(OC3OCC(O)C(O)C3O)C2O)C(O)C1O` (stereo not shown) [A19] has a CC15 [1] of 1.17 µM, a CC50 at 2 days [2] of 17.9 µM and an inhibition at 1 µM [3, 6] of 94.8 ± 1.6%. For the same compound, the IC50 [3, 5] was 0.041 ± 0.005 µM and the “EW (CC50/IC50)” value [3] was 435.61.

With `C=CC(C)(O)CC/C=C(\C)C(=O)OC1C(O)C(CO)OC(OC(=O)C23CCC(C)(C)CC2C2=CCC4C5(C)CCC(OC6OC(COC7OCC(OC(C)=O)C(O)C7OC7OC(COC(C)=O)C(O)C(O)C7O)C(O)C(O)C6OC6OCC(O)C(O)C6O)C(C)(C)C5CCC4(C)C2(C)C(O)C3O)C1OC1OCC(OC2OCC(O)C(OC3OCC(O)C(O)C3O)C2O)C(O)C1O` (stereo not shown) [A20] the CC15 [1] was 18.85 µM, the CC50 at 2 days [2] was 50.2 µM and the inhibition at 10 µM [3, 4] was 96 ± 1.5%. The IC50 [3, 5] was 0.087 ± 0.01 µM and the “EW (CC50/IC50)” value [3] was 576.67.
